Source: PMC8668186, “Molecular architecture of the human tRNA ligase complex” (eLife, 2021)

Target: T1, RTCB (Homo sapiens, UniProt Q9Y3I0)
T1 construct: full length (505 residues), N-terminal His6 tag removed with TEV protease, expressed in Sf9 insect cells; model residues 3-505 with gaps
T1 sequence (Q9Y3I0 1-505): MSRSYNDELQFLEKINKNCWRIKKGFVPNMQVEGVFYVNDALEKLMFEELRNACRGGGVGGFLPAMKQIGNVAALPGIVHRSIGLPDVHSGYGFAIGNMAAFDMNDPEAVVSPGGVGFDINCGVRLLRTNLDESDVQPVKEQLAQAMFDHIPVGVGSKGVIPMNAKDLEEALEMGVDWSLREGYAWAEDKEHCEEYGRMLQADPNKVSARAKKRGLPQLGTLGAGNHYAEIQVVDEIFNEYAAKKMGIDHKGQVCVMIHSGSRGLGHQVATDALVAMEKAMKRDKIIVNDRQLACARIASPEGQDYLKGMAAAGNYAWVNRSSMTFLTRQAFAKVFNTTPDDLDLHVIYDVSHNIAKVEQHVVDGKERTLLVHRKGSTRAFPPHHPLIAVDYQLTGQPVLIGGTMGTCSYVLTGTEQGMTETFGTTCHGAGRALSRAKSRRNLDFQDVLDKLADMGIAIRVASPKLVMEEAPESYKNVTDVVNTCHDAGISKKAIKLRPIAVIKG
Assay: X-ray crystal structure, […] Å
Assay type: binding
Conditions: two Co2+ ions in active site, crystallised at pH 5.5, 20 °C, 5 mM CoCl2, 0.5 mM GMP, non-covalent product-bound state

Q: Which “X-ray crystal structure, 2.3 Å” value does the source give for `Nc1nc2c(ncn2[C@@H]2O[C@H](COP(=O)(O)O)[C@@H](O)[C@H]2O)c(=O)[nH]1` [GMP] here?
A: crystal structure of human RTCB in complex with a GMP molecule and two divalent cobalt
